In paper PMC11988912, “Sensitization Potential of the Major Soybean Allergen Gly m 4 and Its Cross-Reactivity with the Birch Pollen Allergen Bet v 1” (International Journal of Molecular Sciences, 2025):

The molecules below were run against T1, Gly m 4 (Glycine max, UniProt P26987) (assay: TNS fluorescence displacement). Conditions: 4 uM ligand, 4 uM TNS, 4 uM Gly m 4; 10 mM phosphate buffer pH 7.4, 25 C; residual fluorescence of the Gly m 4-TNS complex.
T1 construct: gene PR-10; recombinant allergen, full length; made in E. coli
T1 sequence (P26987 1-158): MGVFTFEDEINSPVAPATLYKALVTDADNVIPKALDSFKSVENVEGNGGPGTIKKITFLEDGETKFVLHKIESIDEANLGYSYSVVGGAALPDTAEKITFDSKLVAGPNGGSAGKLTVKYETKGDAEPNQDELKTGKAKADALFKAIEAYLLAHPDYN
Format: binding

| Compound | % of the control fluorescence [%] |
| --- | --- |
| C[C@H](CCC(=O)O)[C@H]1CC[C@H]2[C@@H]3[C@H](O)C[C@@H]4C[C@H](O)CC[C@]4(C)[C@H]3C[C@H](O)[C@]12C [CA, cholic acid] | 88 |
| C[C@H](CCC(=O)O)[C@H]1CC[C@H]2[C@@H]3[C@H](O)C[C@@H]4C[C@H](O)CC[C@]4(C)[C@H]3CC[C@]12C [CDCA, chenodeoxycholic acid] | 53 |
| CC(C)CCC[C@@H](C)[C@H]1CC[C@H]2[C@@H]3CC=C4C[C@@H](O)CC[C@]4(C)[C@H]3CC[C@]12C [CHOL, cholesterol] | 83 |
| C[C@H](CCC(=O)O)[C@H]1CC[C@H]2[C@@H]3CC[C@@H]4C[C@H](O)CC[C@]4(C)[C@H]3C[C@H](O)[C@]12C [DCA, deoxycholic acid] | 71 |
| C[C@H](CCC(=O)O)[C@H]1CC[C@H]2[C@@H]3CC[C@@H]4C[C@H](O)CC[C@]4(C)[C@H]3CC[C@]12C [LCA, lithocholic acid] | 10 |
